{"source": "patent US5573772A", "about": "“Methods for protecting tissues and organs from ischemic damage” (priority 1994, dated 1996)", "test_system": "rabbit heart", "assay": "Infarct size in isolated rabbit hearts, A3-receptor mediation of preconditioning, Example 3", "description": "New Zealand white rabbits of either sex, between 1.4-2.4 kg, were anesthetized with intravenous sodium pentobarbital (30 mg/kg). The neck was opened and a tracheotomy was performed. The rabbits were ventilated with 100% oxygen via a positive pressure respirator (MD industries, Mobile, Ala.). Ventilation rate was 30-35 breaths per minute, and tidal volume was approximately 15 ml. A left thoracotomy was performed in the fourth intercostal space and pericardium was opened to expose the heart. A 2-0 silk suture with an RB taper needle was passed around a branch of the left coronary artery, and the end of the silk were threaded through a small vinyl tube to form a snare. The heads were quickly excised and mounted on a Langendorff apparatus and perfused at constant pressure with Krebs buffer containing (in mM) 118.5 NaCl, 4.7 KCl, 1.2 MgSO4, 1.2 K2 PO4, 24.3 NaHCO3, 2.5 CaCl2 and 10 glucose. […] The temperature of the perfusate was maintained at 37° C. The perfusion pressure was kept at 75 mm Hg. Pacing electrodes were placed on the right atrium and all hearts were paced at 200 beats/minute with pulses of 5 volts and 4 msec duration to keep the heart rate constant. A fluid-filled latex balloon connected to a transducer via PE240 tubing was inserted into the left ventricle. Balloon volume was adjusted to set the left ventricular diastolic pressure at 10 mm Hg at the beginning of the experiment. Total coronary artery flow was measured by timed collection of buffer from the chamber into a graduated cylinder. Regional ischemia was effected by pulling the snare tight and clamping the tube with a hemostat. Global ischemia was performed by clamping the inflow tubing of the Langendorff apparatus. Reperfusion was achieved by releasing the restriction. All hearts were allowed to equilibrate for 20 minutes before the experiments were started. Heart rate (HR), coronary flow (CF) and left ventricular developed pressure (LVDP) were recorded at the point just before and at the end of each treatment with the pacing momentarily turned off. […] The hearts were removed from the Langendorff apparatus, weighed and then frozen. The hearts were cut into 2 mm transverse slices. The slices were thawed and incubated in 1% triphenyl tetrazolium chloride (TTC) in pH 7.4 buffer for 20 minutes at 37° C. TTC reacts with NADH and dehydrogenase enzymes and stains all tissue still having them to a deep red color. […] After staining, the area of infarcted tissue (TTC negative tissue) and the risk zone (area lacking fluorescence under ultraviolet light) in each slice were traced. The area of infarct and risk zone were determined by planimetry of the tracing. The volume of infarcted myocardium and myocardium at risk was then calculated by multiplying the planimetered areas by the slice thickness. The methods utilized in this example are identical to those described in Example 1. All hearts received 30 minutes of regional ischemia as described in Example 1. The control group (n=8) hearts received only 30 minutes of ischemia. Preconditioned (PC) hearts (n=10) received 5 minutes of global ischemia and 10 minutes of reperfusion prior to the regional ischemia. Adenosine (ADO) treated hearts (n=6) received 10 μM adenosine for 5 minutes prior to regional ischemia. APNEA treated hearts (n=6) received 65 μM APNEA for 5 minutes prior to regional ischemia. In groups receiving the nonselective adenosine blocker, 8-SPT, the blocker was included in the perfusate for 15 minutes at 100 μM starting 5 minutes before the exposure of ADO (ADO-SPT group, n=6), or APNEA (APNEA-SPT group, n=6 ) or 5 minutes before and after 5 minutes of preconditioning ischemia (PC-SPT group, n=5). […] For the PC-BW group (n=5), the A3-receptor antagonist, BW A1433, [Linden J, et al., Molecular Pharmacology 44:524-532 (1993)], was administered at a dose of 200 nM in the perfusate for 5 minutes before and 5 minutes after PC ischemia."}
{"smiles": "Nc1ncnc2c1ncn2[C@@H]1O[C@H](CO)[C@@H](O)[C@H]1O", "note": "[ADO, Adenosine]", "values": [{"measurement": "Infarct size (of the risk area)", "setting": "ADO 10 μM, 5 minutes, control 32.2±1.5%, PC 8.8±2.3%", "result": "11.4±2.3", "unit": "%"}]}
{"smiles": "Nc1ccc(CCNc2ncnc3c2ncn3[C@@H]2O[C@H](CO)[C@@H](O)[C@H]2O)cc1", "note": "[APNEA, N^6-(2-(4-aminophenyl)ethyl) adenosine]", "values": [{"measurement": "Infarct size (of the risk area)", "setting": "APNEA 65 μM (so in the source), 5 minutes, control 32.2±1.5%", "result": "12.6±2.2", "unit": "%"}]}
{"smiles": "CCCn1c(=O)c2[nH]c(C3CCCC3)nc2n(CCC)c1=O", "note": "[DPCPX, 8-cyclopentyl-1,3-dipropylxanthine]", "values": [{"measurement": "Infarct size (of the risk area)", "setting": "DPCPX 200 nM + ADO", "result": "14.4±2.8", "unit": "%"}, {"measurement": "Infarct size (of the risk area)", "setting": "DPCPX 200 nM + APNEA", "result": "8.7±1.7", "unit": "%"}, {"measurement": "Infarct size (of the risk area)", "setting": "DPCPX 200 nM + PC", "result": "15.6±7.8", "unit": "%"}]}
{"smiles": "Cn1c(=O)c2[nH]c(-c3ccc(S(=O)(=O)O)cc3)nc2n(C)c1=O", "note": "[SPT, 8-(p-Sulfophenyl)-theophylline]", "values": [{"measurement": "Infarct size (of the risk area)", "setting": "8-SPT 100 μM + ADO", "result": "29.8±3.7", "unit": "%"}, {"measurement": "Infarct size (of the risk area)", "setting": "8-SPT 100 μM + APNEA", "result": "30.3±3.3", "unit": "%"}, {"measurement": "Infarct size (of the risk area)", "setting": "8-SPT 100 μM + PC", "result": "33.8±2.7", "unit": "%"}]}
